Data: patent US20240262806A1, “INHIBITORS OF NLRP3” (PTC THERAPEUTICS, INC., priority 2021, published 2024)

system: NLRP3 inflammasome; assay: IL-1β Secretion Assay (NLRP3-dependent IL-1β secretion in PMA-differentiated THP-1 cells, nigericin activation, HTRF); assay type: cell-based; details: Homo sapiens, THP-1, THP-1 cells, 100 ng/mL PMA 24 h, compound 20 h, 2.5 μM Nigericin 3 h; read-out: IC50 IL-1β Inhibition
In short: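 PMA-differentiated THP-1 cells in RPMI with 5% FBS were treated with compounds at 7 concentrations in threefold DMSO dilutions. NLRP3 was activated with nigericin and secreted IL-1β measured by HTRF. IC50 from a logistic fit of percent inhibition versus concentration.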

Row | SMILES | IC50 [nM]
1 | Cc1noc2c(-c3ccc(C(F)(F)F)cc3O)nnc(N[C@@H]3CCCN(C)C3)c12 [Compound I-255, 2-[3-methyl-4-[[(3R)-1-methyl-3-piperidyl]amino]isoxazolo[4,5-d]pyridazin-7-yl]-5-(trifluoromethyl)phenol] | 1 to 10
2 | CN1CCC[C@@H](Nc2nnc(-c3ccc(C4CC4)cc3OC(F)F)c3c2CCC3)C1 [Compound I-246] | 10 to 100
3 | COc1ccc(-c2nnc(N[C@@H]3CCCN(C)C3)c3cnccc23)c(C(F)F)c1 [Compound I-287] | 1 to 10
4 | CN1CCC[C@@H](Nc2nnc(-c3ccc(C(F)(F)F)cc3CO)c3ccncc23)C1 [Compound I-190] | 10 to 100
5 | Cc1cccc(-c2nnc(N[C@@H]3CCCN(C)C3)c3ccccc23)c1O [Compound I-27] | < 1
6 | CN1CCC[C@@H](Nc2nnc(-c3ccc(C4CC4)cc3C(F)F)c3cccn23)C1 [Compound I-446, 1-[4-Cyclopropyl-2-(difluoromethyl)phenyl]-N-[(3R)-1-methyl-3-piperidyl]pyrrolo-[1,2-d][1,2,4]triazin-4-amine] | 1 to 10
7 | CCOC(=O)[C@@H]1CC[C@@H](Nc2nnc(-c3ccc(C(F)(F)F)cc3O)c3ccncc23)CN1C [Compound I-318, Ethyl (2S,5R)-5-((1-(2-hydroxy-4-(trifluoromethyl)phenyl)pyrido[3,4-d]pyridazin-4-yl)amino)-1-methylpiperidine-2-carboxylate] | < 1
8 | CN1C[C@@H](F)C[C@H](Nc2nnc(-c3ccc(C(F)(F)F)cc3O)c3ccncc23)C1 [Compound I-278] | 10 to 100
9 | CN1C[C@H](Nc2nnc(-c3ccc(C(F)(F)F)cc3O)c3ccncc23)CC(F)(F)C1 [Compound I-265] | 1 to 10
10 | CN1CCC[C@@H](Nc2nnc(-c3ccc(C4CC4)cc3C(F)F)c3ccncc23)C1 [Compound I-248] | 1 to 10
11 | CN1C[C@H](F)C[C@@H](Nc2nnc(-c3ccc(C(F)(F)F)cc3C(F)(F)F)c3cccn23)C1 [Compound I-468] | 1 to 10
12 | CN1CCC[C@@H](Nc2nnc(-c3ccc(C(F)(F)F)cc3O)c3cscc23)C1 [Compound I-250] | < 1
13 | Oc1cc(C(F)(F)F)ccc1-c1nnc(N[C@H]2CNCC[C@H]2F)c2cnccc12 [Compound I-301] | 1 to 10
14 | OCCN1CCC[C@@H](Nc2nnc(-c3ccc(OC(F)(F)F)cc3OC(F)F)c3cccn23)C1 [Compound I-520] | 1 to 10
15 | Oc1cc(C2CC2)ccc1-c1nnc(N[C@@H]2CCCN(C3CCOCC3)C2)n2cccc12 [Compound I-340] | 1 to 10
16 | CC(C)(O)CNc1nnc(-c2ccc(C(F)(F)F)cc2C(F)(F)F)c2cccn12 [Compound I-531] | 10 to 100
17 | CO[C@H]1CCC[C@@H](Nc2nnc(-c3ccc(Cl)cc3O)c3cncn23)C1 [Compound I-581] | 1 to 10
18 | Cc1ccc(-c2nnc(N[C@@H]3CCCN(C)C3)n3nc(C)cc23)c(OC(F)(F)F)c1 [Compound I-396, (R)-2-Methyl-4-(4-methyl-2-(trifluoromethoxy)phenyl)-N-(1-methylpiperidin-3-yl)pyrazolo[1,5-d][1,2,4]triazin-7-amine] | 10 to 100
19 | CN1C[C@H](F)C[C@@H](Nc2nnc(-c3ccc(C(F)(F)F)cc3O)c3cncn23)C1 [Compound I-528] | < 1
20 | CN1C[C@@H](F)C[C@H](Nc2nnc(-c3ccc(C(F)(F)F)cc3O)c3ccccc23)C1 [Compound I-164] | 10 to 100
21 | CN1CCC[C@@H](Nc2nnc(-c3ccc(Br)cc3O)c3cccn23)C1 [Compound I-484, (R)-5-Bromo-2-(4-((1-methylpiperidin-3-yl)amino)pyrrolo[1,2-d][1,2,4]triazin-1-yl)phenol] | 1 to 10
22 | CN1CCC[C@@H](Nc2nnc(-c3ccc(C(F)(F)F)cc3OC(F)F)c3cncn23)C1 [Compound I-624] | 1 to 10
23 | CCN1CCC[C@@H](Nc2nnc(-c3ccc(Br)cc3O)c3ccnn23)C1 [Compound I-453] | < 1
